Data on three molecules can be found in patent US20230218581A1, “COMPOSITIONS AND METHODS COMPRISING DENDRIMERS AND THERAPEUTIC AGENTS” (The Johns Hopkins University, priority 2020, published 2023).

In data set [1] the test system is human immunodeficiency virus (HIV). To be noted: cited from earlier work.
A further data set relates to mouse primary glia. Briefly: exosome release from glial cells, nanoparticle tracking analysis. The format is cell-based. The settings on record: glia activated by FBS, 0.03-100 μM, two hours after treatment.
A further data set deals with alkaline phosphatase. As to the kind of experiment: selectivity: alkaline phosphatase inhibition. In kind it is biochemical.
The target in a further data set is T1, P38d/MAPK13 (Homo sapiens, UniProt O15264).
T1 sequence (O15264 1-365): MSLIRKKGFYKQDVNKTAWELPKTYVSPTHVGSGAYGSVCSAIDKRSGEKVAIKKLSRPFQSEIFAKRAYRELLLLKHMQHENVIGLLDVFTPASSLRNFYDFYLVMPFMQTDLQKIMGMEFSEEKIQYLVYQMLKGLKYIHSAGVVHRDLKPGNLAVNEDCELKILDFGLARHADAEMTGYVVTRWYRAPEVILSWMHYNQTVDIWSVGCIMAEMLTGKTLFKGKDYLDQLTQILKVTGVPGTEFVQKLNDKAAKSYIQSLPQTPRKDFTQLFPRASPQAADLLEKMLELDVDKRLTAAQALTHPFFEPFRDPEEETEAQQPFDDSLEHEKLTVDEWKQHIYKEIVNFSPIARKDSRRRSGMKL
Briefly: p38 MAP kinase profiling, P38d. In kind it is biochemical. To be noted: DPTIP tested at 0.001-100 μM.

In data set [2] the test system is synaptic proteins (PSD-95, NR2A, GluR1). Briefly: synaptic protein levels after nSMase2 inhibitor treatment. The format is in vivo. To be noted: 10 mg/kg daily; intraperitoneal.
The next data set deals with horizontal brain slices. As to the kind of experiment: voltage traces from brain slices on multielectrode array. The settings on record: pre and post 10 μM treatment.
Data set [3] in a line: Phase I metabolic stability, mouse liver microsomes. To be noted: at 1 hr. In kind it is in vitro ADME. How it is done:
(§1) The in vitro and in vivo pharmacokinetic properties of DPTIP were evaluated.
(§2) ; FIG. 6C) administration in mice were not optimal (F<5%, AUCbrain/plasma ratio <0.2).

The nature of data set [4]: Phase I metabolic stability, human liver microsomes. The format is in vitro ADME. The settings on record: at 1 hr. Here is the method: as §1, §2
A short description of data set [5]: phase II glucuronidation stability. In kind it is in vitro ADME. To be noted: at 1 hr.
From the text: as §2

A short description of data set [6]: DPTIP pharmacokinetics in mice. In kind it is in vivo. Here is the method: as §1, §2
Data set [7] is described as follows: DPTIP brain penetration in AD mice (3xTg). To be noted: mouse, brain/plasma, ip; AD mice (3×Tg), 10 mg/kg i.p. In kind it is in vivo.
From the text: as §2

For data set [8] the following is noted: 759 bioassays; cited from earlier work.
Another data set concerns the target P38a/MAPK14 (Homo sapiens, UniProt Q16539). Briefly: p38 MAP kinase profiling, P38a. To be noted: DPTIP tested at 0.001-100 μM.
The next data set concerns the target P38b/MAPK11 (Homo sapiens, UniProt Q15759). Briefly: p38 MAP kinase profiling, P38b. The settings on record: DPTIP tested at 0.001-100 μM.
Another data set has as its target T2, P38g (Homo sapiens, UniProt P53778).
T2 sequence (P53778 1-367): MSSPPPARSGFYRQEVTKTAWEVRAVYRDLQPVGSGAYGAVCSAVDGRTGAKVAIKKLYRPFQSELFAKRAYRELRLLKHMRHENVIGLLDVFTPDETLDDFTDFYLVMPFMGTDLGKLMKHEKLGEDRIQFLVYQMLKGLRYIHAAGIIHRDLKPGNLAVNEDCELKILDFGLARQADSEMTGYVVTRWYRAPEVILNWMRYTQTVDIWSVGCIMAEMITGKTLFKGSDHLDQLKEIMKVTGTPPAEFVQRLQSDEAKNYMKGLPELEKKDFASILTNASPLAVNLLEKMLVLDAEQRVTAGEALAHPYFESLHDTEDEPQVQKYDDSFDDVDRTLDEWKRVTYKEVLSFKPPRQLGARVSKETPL
Briefly: p38 MAP kinase profiling, P38g. To be noted: DPTIP tested at 0.001-100 μM.

A further data set has as its target T3, acid sphingomyelinase (Homo sapiens, UniProt P17405).
T3 sequence (P17405 47-631): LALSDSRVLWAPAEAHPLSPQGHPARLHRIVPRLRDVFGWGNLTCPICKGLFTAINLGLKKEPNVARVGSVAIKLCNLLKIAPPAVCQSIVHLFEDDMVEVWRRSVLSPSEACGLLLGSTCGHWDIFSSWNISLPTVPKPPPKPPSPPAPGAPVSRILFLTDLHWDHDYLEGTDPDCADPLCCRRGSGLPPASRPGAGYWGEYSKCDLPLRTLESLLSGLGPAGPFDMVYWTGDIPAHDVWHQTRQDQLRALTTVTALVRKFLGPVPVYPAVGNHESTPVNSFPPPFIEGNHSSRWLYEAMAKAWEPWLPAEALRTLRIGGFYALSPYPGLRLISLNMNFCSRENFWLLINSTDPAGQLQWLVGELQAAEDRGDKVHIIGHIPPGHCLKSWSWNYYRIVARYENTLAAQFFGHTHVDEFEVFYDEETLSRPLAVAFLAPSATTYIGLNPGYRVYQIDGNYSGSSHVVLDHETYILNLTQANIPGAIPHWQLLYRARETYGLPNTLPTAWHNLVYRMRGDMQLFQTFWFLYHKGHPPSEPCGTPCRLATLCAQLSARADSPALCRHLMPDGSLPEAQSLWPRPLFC
Briefly: selectivity: acid sphingomyelinase inhibition.

P38a/MAPK14, sequence (Q16539 whole entry): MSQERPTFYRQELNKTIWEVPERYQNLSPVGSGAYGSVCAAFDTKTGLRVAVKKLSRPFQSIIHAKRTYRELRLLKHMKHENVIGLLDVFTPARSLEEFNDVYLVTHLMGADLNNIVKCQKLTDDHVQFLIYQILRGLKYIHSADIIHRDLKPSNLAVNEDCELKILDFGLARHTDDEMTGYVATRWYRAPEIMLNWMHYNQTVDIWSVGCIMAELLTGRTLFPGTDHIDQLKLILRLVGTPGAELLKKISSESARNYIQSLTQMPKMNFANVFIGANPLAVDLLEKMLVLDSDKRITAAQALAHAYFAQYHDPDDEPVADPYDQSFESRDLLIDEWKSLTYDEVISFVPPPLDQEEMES
P38b/MAPK11, sequence (Q15759 whole entry): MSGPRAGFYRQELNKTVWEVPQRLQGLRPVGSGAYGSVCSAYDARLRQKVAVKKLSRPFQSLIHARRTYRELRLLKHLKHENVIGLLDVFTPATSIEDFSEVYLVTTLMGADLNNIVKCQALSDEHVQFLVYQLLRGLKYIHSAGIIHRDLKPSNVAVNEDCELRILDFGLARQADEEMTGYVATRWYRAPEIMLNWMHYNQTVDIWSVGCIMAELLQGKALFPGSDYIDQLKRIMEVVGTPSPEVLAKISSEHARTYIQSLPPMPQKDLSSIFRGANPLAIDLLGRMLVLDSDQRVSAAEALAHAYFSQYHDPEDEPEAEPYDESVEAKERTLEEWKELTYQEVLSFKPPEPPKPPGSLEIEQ

In the case of `CCCCCCCCCC(=O)N[C@H](CO)C(=O)NC1=CC2(CO2)C(=O)C=C1` (stereo partly drawn) [spiroepoxide], the “dendritic cell-mediated infection of healthy CD4+ T lymphocytes” value in data set [1] is reported as “reduced”.
`COc1cc(OC)cc(-c2nc(-c3cccs3)c(-c3ccccc3)[nH]2)c1` [des-hydroxyl analog, reference compound]: in the data set with mouse primary glia, the exosome release result is “no effect”.
Take `COc1cc(-c2nc(-c3cccs3)c(-c3ccccc3)[nH]2)cc(OC)c1O` [DPTIP, 2,6-dimethoxy-4-(5-phenyl-4-(thiophen-2-yl)-1H-imidazol-2-yl) phenol]: the 50% inhibitory concentration (IC50) on alkaline phosphatase and at acid sphingomyelinase was greater than 100 µM in each case. Also, the “IC50 (M)” value at P38d/MAPK13, against P38a/MAPK14, against P38b/MAPK11 and on P38g was “not quantifiable” throughout. Besides, in the data set with mouse primary glia, the exosome release result is “inhibited exosome release in a dose-dependent manner”. Also, in [2], the “effect on PSD95 or NR2A” value is “no significant effect”. Besides, the “differences in voltage traces (neuronal function)” value with horizontal brain slices is “No significant differences”. The “% remaining (CYP-dependent oxidation)” value in data set [3] and in data set [4] was 100% in each case. For the same molecule, the “% remaining (phase II glucuronidation)” value in data set [5] is greater than 50%. In addition, the “levels of DPTIP post-administration” value in [6] (2-he post-administration) is on record as “undetectable”. The Kp in data set [6] (mouse, brain/plasma, 10 mg/kg PO, read-out: AUCbrain/plasma ratio) is less than 0.2; in [7] it was less than 0.2. Further, the clearance in [6] (mouse, plasma, oral, 10 mg/kg, read-out: clearance Clapp) turned out to be 92 mL/min/kg. For the same molecule, in [6] (mouse, plasma, oral, 10 mg/kg, read-out: plasma half-life t½ (converted)), the half-life was roughly 30 min. Besides, the bioavailability in [6] (mouse, plasma, 10 mg/kg PO, read-out: oral bioavailability F) was less than 5%. Also, the “share of assays with weak activity (μM)” value in data set [8] is less than 2.5%.
